These results are taken from US4971967A, “Quinolinecarboxylic acid derivatives, antibacterial compositions and use” (Kanebo Ltd, priority 1989, dated 1990).

Holding throughout (assay type): cell-based
Test [1] relates to Klebsiella pneumoniae PCI-602. The test is described as follows: Antibacterial activity (MIC), Klebsiella pneumoniae PCI-602. The settings on record: PCI602; Klebsiella pneumoniae PCI-602, Gram -; read-out: Minimum inhibitory concentration (MIC). As to the method:
(§1) The compounds of the present invention (A, C, D, E, F, G, H, I, J, L, O and P) and the known compound (X) as reference were dissolved in 0.1 N aqueous sodium hydroxide to prepare a solution of 5000 μg/ml in concentration. The compounds of the present invention (B, K, M and N) and the known compound (Y) were dissolved in sterilized distilled water to prepare a solution of 5000 μg/ml in concentration. Each solution was diluted with sterilized distilled water to prepare a standard solution with a concentration of each test compound: 1000 μg/ml. The test was carried out by a method as appointed by Japan Society of Chemotherapy [cf. Chemotherapy, 29, 76-79 (1981)(TOKYO)].

The test system of test [2] is Enterobacter aerogenes ATCC 13048. As to the kind of experiment: Antibacterial activity (MIC), Enterobacter aerogenes ATCC 13048. The settings on record: Klebsiella aerogenes. As to the method: as §1
In test [3] the test system is Citrobacter freundii NIHJ 10018-68. The test is described as follows: Antibacterial activity (MIC), Citrobacter freundii NIHJ 10018-68. The settings on record: Citrobacter freundii, NIHJ10018, Citrobacter freundii NIHJ 10018-68, Gram -; read-out: Minimum inhibitory concentration (MIC). As to the method: as §1
Test [4] relates to Salmonella typhimurium IID 971. As to the kind of experiment: Antibacterial activity (MIC), Salmonella typhimurium IID 971. The settings on record: Salmonella enterica, read-out: Minimum inhibitory concentration (MIC). As to the method: as §1
The test system of test [5] is Serratia marcescens IAM 1184. As to the kind of experiment: Antibacterial activity (MIC), Serratia marcescens IAM 1184. The settings on record: Serratia marcescens, IAM1184, Serratia marcescens IAM 1184, Gram -; read-out: Minimum inhibitory concentration (MIC). As to the method:
as §1

The test system of test [6] is Staphylococcus aureus FDA 209P JC-1. As to the kind of experiment: Antibacterial activity (MIC), S. aureus FDA 209P JC-1. The settings on record: Staphylococcus aureus, FDA209P, read-out: Minimum inhibitory concentration (MIC). As to the method:
as §1

Test [7] concerns Staphylococcus epidermidis IAM-1296. The test is described as follows: Antibacterial activity (MIC), S. epidermidis IAM-1296. The conditions noted are these: Staphylococcus epidermidis. As to the method:
as §1

Test [8] has as its system Morganella morganii IFO 3848. The test is described as follows: Antibacterial activity (MIC), Morganella morganii IFO 3848. The conditions noted are these: for MIC: Morganella morganii, IFO3848, Morganella morganii IFO 3848, Gram -, read-out: Minimum inhibitory concentration (MIC). On the procedure:
as §1

Test [9] has as its system Escherichia coli KC-14. The test is described as follows: Antibacterial activity (MIC), E. coli KC-14. As to the method:
as §1

The subject of test [10] is Micrococcus luteus ATCC 9341. As to the kind of experiment: Antibacterial activity (MIC), Micrococcus luteus ATCC 9341. The conditions noted are these: ATCC9341; Micrococcus luteus ATCC 9341, Gram +; read-out: Minimum inhibitory concentration (MIC). As to the method: as §1
The test system of test [11] is Escherichia coli NIHJ JC-2. As to the kind of experiment: Antibacterial activity (MIC), E. coli NIHJ JC-2. As to the method:
as §1

In test [12] the test system is Pseudomonas aeruginosa IFO 3445. The test is described as follows: Antibacterial activity (MIC), P. aeruginosa IFO 3445. The conditions noted are these: Pseudomonas aeruginosa, IFO3445, Pseudomonas aeruginosa IFO 3445, Gram -; read-out: Minimum inhibitory concentration (MIC). As to the method: as §1
Test [13] relates to Bacillus subtilis ATCC 6633. The test is described as follows: Antibacterial activity (MIC), Bacillus subtilis ATCC 6633. The settings on record: Bacillus subtilis, ATCC6633, Bacillus subtilis ATCC 6633, Gram +; read-out: Minimum inhibitory concentration (MIC). As to the method:
as §1

In test [14] the test system is Enterobacter cloacae 963. As to the kind of experiment: Antibacterial activity (MIC), Enterobacter cloacae 963. On the procedure:
as §1

Test [15] deals with Pseudomonas aeruginosa E-2. As to the kind of experiment: Antibacterial activity (MIC), P. aeruginosa E-2. The settings on record: E2; Pseudomonas aeruginosa E-2, Gram -; read-out: Minimum inhibitory concentration (MIC). As to the method: as §1
The subject of test [16] is Proteus vulgaris OX-19. The test is described as follows: Antibacterial activity (MIC), Proteus vulgaris OX-19. As to the method:
as §1

In test [17] the test system is Pseudomonas aeruginosa NCTC 10490. As to the kind of experiment: Antibacterial activity (MIC), P. aeruginosa NCTC 10490. The settings on record: Pseudomonas aeruginosa, NCTC10490, Pseudomonas aeruginosa NCTC 10490, Gram -; read-out: Minimum inhibitory concentration (MIC). As to the method:
as §1

Test [18] has as its system Streptococcus faecalis IID 682. As to the kind of experiment: Antibacterial activity (MIC), Streptococcus faecalis IID 682. The conditions noted are these: for MIC: Enterococcus faecalis, IID682, Streptococcus faecalis IID 682, Gram +, read-out: Minimum inhibitory concentration (MIC). On the procedure:
as §1

Test [19] concerns Shigella sonnei EW-33. The test is described as follows: Antibacterial activity (MIC), Shigella sonnei EW-33. The conditions noted are these: Shigella sonnei, EW33, Shigella sonnei EW-33, Gram -; read-out: Minimum inhibitory concentration (MIC). On the procedure: as §1
Test [20] concerns Proteus mirabilis IFO 3849. As to the kind of experiment: Antibacterial activity (MIC), Proteus mirabilis IFO 3849. The settings on record: IFO3849; Proteus mirabilis IFO 3849, Gram -; read-out: Minimum inhibitory concentration (MIC). As to the method: as §1
For test [21], the system named is Acinetobacter calcoaceticus AC 54. As to the kind of experiment: Antibacterial activity (MIC), Acinetobacter calcoaceticus AC 54. The conditions noted are these: AC54; Acinetobacter calcoaceticus AC 54, Gram -; read-out: Minimum inhibitory concentration (MIC). As to the method: as §1
Test [22] has as its system Staphylococcus aureus IID 803. The test is described as follows: Antibacterial activity (MIC), S. aureus IID 803. The settings on record: Staphylococcus aureus, IID803, read-out: Minimum inhibitory concentration (MIC). As to the method: as §1
Where [23] appears, read: Escherichia coli, KC14, read-out: Minimum inhibitory concentration (MIC).
Where [24] appears, read: Salmonella typhimurium IID 971, Gram -.

Structures are written as SMILES. In brackets after ≈: the same amount, converted by molar mass. Where a name gives a salt, the structure may show the parent alone. Read-outs that look alike come from different tables or passages of the source.

Turning to `CC1CN(c2c(F)cc3c(=O)c(C(=O)O)c4scc5n4c3c2N(C)C5)CCN1` (stereo not shown) [Compound (D), 9,1-(Methylimino)methano-7-fluoro-8-(3-methyl-1-piperazinyl)-5-oxo-5H-thiazolo[3,2-a]quinoline-4-carboxylic acid], the MIC in test [1] came to 0.006 µg/mL (≈ 0.0149 µM); in [2] (ATCC13048, read-out: Minimum inhibitory concentration (MIC)) it was 0.05 µg/mL (≈ 0.124 µM); in [3], 0.39 µg/mL (≈ 0.969 µM); in [4] it was 0.05 µg/mL (≈ 0.124 µM); in test [5], 0.39 µg/mL (≈ 0.969 µM); in [6], 0.05 µg/mL (≈ 0.124 µM). In addition, the MIC in [7] (IAM1296, read-out: Minimum inhibitory concentration (MIC)) worked out at 0.05 µg/mL (≈ 0.124 µM); in [8], 0.1 µg/mL (≈ 0.248 µM); in [9] (setting [23]), 0.05 µg/mL (≈ 0.124 µM); in test [10], 0.39 µg/mL (≈ 0.969 µM); in test [11] (Escherichia coli, NIHJJC2, read-out: Minimum inhibitory concentration (MIC)) it was 0.05 µg/mL (≈ 0.124 µM); in test [12], 0.78 µg/mL (≈ 1.94 µM). Also, the MIC was determined as 0.006 µg/mL (≈ 0.0149 µM) in [13]; 0.05 µg/mL (≈ 0.124 µM) in test [14] (Enterobacter cloacae, 963, read-out: Minimum inhibitory concentration (MIC)); 0.78 µg/mL (≈ 1.94 µM) in [15]; 0.006 µg/mL (≈ 0.0149 µM) in test [16] (OX19, Proteus vulgaris OX-19, Gram -, read-out: Minimum inhibitory concentration (MIC)); 0.39 µg/mL (≈ 0.969 µM) in test [17]; 0.1 µg/mL (≈ 0.248 µM) in test [18]. Besides, the MIC in test [19] is 0.05 µg/mL (≈ 0.124 µM); in test [20], 0.2 µg/mL (≈ 0.497 µM); in test [21], 0.025 µg/mL (≈ 0.0621 µM); in test [22], 0.05 µg/mL (≈ 0.124 µM).

For `CC1CN(c2c(F)cc3c(=O)c(C(=O)O)c4scc5n4c3c2N(C)C5)CC(C)N1` (stereo not shown) [Compound (E), 9,1-(Methylimino)methano-7-fluoro-8-(3,5-dimethyl-1-piperazinyl)-5-oxo-5H-thiazolo[3,2-a]-quinoline-4-carboxylic acid], the MIC was 0.006 µg/mL (≈ 0.0144 µM) in [1]; 0.2 µg/mL (≈ 0.48 µM) in test [2] (ATCC13048, Enterobacter aerogenes ATCC 13048, Gram -, read-out: Minimum inhibitory concentration (MIC)); 1.56 µg/mL (≈ 3.75 µM) in test [3]; 0.1 µg/mL (≈ 0.24 µM) in test [4] (setting [24]); 0.78 µg/mL (≈ 1.87 µM) in test [5]; 0.05 µg/mL (≈ 0.12 µM) in test [6]. For the same compound, the MIC in test [7] (IAM1296, Staphylococcus epidermidis IAM-1296, Gram +, read-out: Minimum inhibitory concentration (MIC)) is 0.1 µg/mL (≈ 0.24 µM); in [8] it was 0.39 µg/mL (≈ 0.936 µM); in [9] (setting [23]), 0.05 µg/mL (≈ 0.12 µM); in test [10], 0.39 µg/mL (≈ 0.936 µM); in test [11] (NIHJJC2, Escherichia coli NIHJ JC-2, Gram -, read-out: Minimum inhibitory concentration (MIC)) it was 0.1 µg/mL (≈ 0.24 µM); in test [12], 1.56 µg/mL (≈ 3.75 µM). Besides, the MIC in [13] was 0.025 µg/mL (≈ 0.06 µM); in [14] (Enterobacter cloacae, 963, Enterobacter cloacae 963, Gram -, read-out: Minimum inhibitory concentration (MIC)), 0.2 µg/mL (≈ 0.48 µM); in [15], 1.56 µg/mL (≈ 3.75 µM); in test [16] (Proteus vulgaris, OX19, read-out: Minimum inhibitory concentration (MIC)), 0.05 µg/mL (≈ 0.12 µM); in test [17] it was 0.39 µg/mL (≈ 0.936 µM); in [18], 0.2 µg/mL (≈ 0.48 µM). Besides, the MIC in [19] was 0.05 µg/mL (≈ 0.12 µM); in test [20], 0.78 µg/mL (≈ 1.87 µM); in [21], 0.025 µg/mL (≈ 0.06 µM); in test [22], 0.05 µg/mL (≈ 0.12 µM).

Turning to `CCN1CCN(c2c(F)cc3c(=O)c(C(=O)O)c4scc5n4c3c2N(C)C5)CC1` [Compound (K), 9,1-(Methylimino)methano-7-fluoro-8-(4-ethyl-1-piperazinyl)-5-oxo-5H-thiazolo[3,2-a]quinoline-4-carboxylic acid hydrochloride], the MIC is 0.05 µg/mL in test [4] (setting [24]); 0.05 µg/mL in [9] (KC14, Escherichia coli KC-14, Gram -, read-out: Minimum inhibitory concentration (MIC)); 0.05 µg/mL in [21]. Moreover, the “Minimum inhibitory concentration (MIC)” value in [8] (Morganella morganii IFO 3848, Gram -, hydrochloride) stood at 0.20 µg/mL; in test [18] (Streptococcus faecalis IID 682, Gram +, hydrochloride) it was 0.20 µg/mL.
